Where “and” joins values, the source holds several entries; their conditions need not be identical. Equal values may be shown once. Inconclusive results and toxic doses are left out. Rule for the calls: active = survival T/C of 150% or more; inactive = T/C below 125% in these data.
Test system: CD2F1 mice, L1210 leukemia ip, survival T/C
Assay: NCI In Vivo Anticancer Drug Screen. Data for tumor model L1210 Leukemia (intraperitoneal) in CD2F1 (CDF1) mice
Conditions: endpoint: mean survival time, higher = longer survival
Method: The antitumor activity of compounds was measured in mice bearing transplantable tumors. Survival or tumor size were measured and the results are expressed as the measurement made in the treated group (T) divided by the measurement made in the vehicle treated control group (C). The tumor model used in this assay is L1210 Leukemia (intraperitoneal) in CD2F1 (CDF1) mice

[1] = dose: 50.0 mg/kg/injection, schedule: Q01DX009 (ip), vehicle: saline with Tween-80
[2] = dose: 100.0 mg/kg/injection, schedule: Q01DX009 (ip), vehicle: saline with Tween-80
[3] = dose: 200.0 mg/kg/injection, schedule: Q01DX009 (ip), vehicle: saline with Tween-80
[4] = dose: 400.0 mg/kg/injection, schedule: Q01DX009 (ip), vehicle: saline with Tween-80
[5] = dose: 25.0 mg/kg/injection, schedule: Q04DX003 (ip), vehicle: saline
[6] = dose: 50.0 mg/kg/injection, schedule: Q04DX003 (ip), vehicle: saline
[7] = dose: 100.0 mg/kg/injection, schedule: Q04DX003 (ip), vehicle: saline
[8] = dose: 100.0 mg/kg/injection, schedule: Q04DX003 (ip), vehicle: saline with Tween-80
[9] = dose: 200.0 mg/kg/injection, schedule: Q04DX003 (ip), vehicle: saline with Tween-80
[10] = dose: 400.0 mg/kg/injection, schedule: Q04DX003 (ip), vehicle: saline with Tween-80
[11] = dose: 100.0 mg/kg/injection, schedule: Q01DX001 (ip), vehicle: saline with Tween-80
[12] = dose: 100.0 mg/kg/injection, schedule: Q04DX002 (ip), vehicle: saline with Tween-80
[13] = dose: 200.0 mg/kg/injection, schedule: Q01DX001 (ip), vehicle: saline with Tween-80
[14] = dose: 200.0 mg/kg/injection, schedule: Q04DX002 (ip), vehicle: saline with Tween-80
[15] = dose: 400.0 mg/kg/injection, schedule: Q01DX001 (ip), vehicle: saline with Tween-80

Measured: T/C

O=[N+]([O-])c1ccc2[nH]c3c(c2c1)CSCC3
inactive: dose: 100.0 mg/kg/injection, schedule: Q01DX009 (ip), vehicle: Klucel (hydroxypropylcellulose) (HPC) 121 % of control | dose: 200.0 mg/kg/injection, schedule: Q01DX009 (ip), vehicle: Klucel (hydroxypropylcellulose) (HPC) 97 % of control | dose: 400.0 mg/kg/injection, schedule: Q01DX009 (ip), vehicle: Klucel (hydroxypropylcellulose) (HPC) 92 % of control

C/C(=N\N=C(/C)c1cccc([N+](=O)[O-])c1)c1cccc([N+](=O)[O-])c1
inactive: dose: 100.0 mg/kg/injection, schedule: Q04DX002 (ip), vehicle: Klucel (hydroxypropylcellulose) (HPC) 104 % of control | dose: 200.0 mg/kg/injection, schedule: Q04DX002 (ip), vehicle: Klucel (hydroxypropylcellulose) (HPC) 97 % of control | dose: 400.0 mg/kg/injection, schedule: Q04DX002 (ip), vehicle: Klucel (hydroxypropylcellulose) (HPC) 108 % of control

CCOC(=O)NCNC(C)C(=O)O (stereo unspecified)
inactive: dose: 50.0 mg/kg/injection, schedule: Q01DX009 (ip), vehicle: saline 115 % of control | dose: 100.0 mg/kg/injection, schedule: Q01DX009 (ip), vehicle: saline 104 % of control | dose: 200.0 mg/kg/injection, schedule: Q01DX009 (ip), vehicle: saline 115 % of control

C/C=C\c1ccc(OCCOC(=O)Nc2c(Cl)cccc2Cl)c(OC)c1
inactive: dose: 12.5 mg/kg/injection, schedule: Q01DX009 (ip), vehicle: saline with Tween-80 103 % of control | dose: 25.0 mg/kg/injection, schedule: Q01DX009 (ip), vehicle: saline with Tween-80 97 % of control | [1] 94 % of control and 99 % of control | [2] 94 % of control | [3] 94 % of control

COc1ccc(C(C)c2ccccc2)cc1 (stereo unspecified)
inactive: [2] 97 % of control | [3] 95 % of control | [4] 97 % of control

N#CSCc1ccc(Cl)cc1Cl
inactive: [1] 103 % of control | [2] 101 % of control | [3] 96 % of control

O=S(=O)(O)Sc1ccccc1
inactive: [5] 97 % of control | [6] 97 % of control | [7] 98 % of control

C=C(c1cn(C(C)=O)c2ccccc12)c1cn(C(C)=O)c2ccccc12
inactive: [2] 95 % of control | [3] 96 % of control | [4] 98 % of control

Clc1ccc(C(=Cc2ccccc2)c2ccc(Cl)cc2)cc1
inactive: [2] 102 % of control | [8] 90 % of control | [3] 93 % of control | [9] 93 % of control | [4] 96 % of control | [10] 97 % of control

N#C/C(=C\C1CC(Br)CCC1O)C1CCC([N+](=O)[O-])CC1 (stereo unspecified)
inactive: [1] 86 % of control | [2] 88 % of control

CC(=O)C=C(C)[O][Tl]
inactive: dose: 75.0 mg/kg/injection, schedule: Q01DX001 (ip), vehicle: saline 102 % of control

COC1CC(O)C(OS(=O)(=O)c2ccc(C)cc2)C(C)O1 (stereo unspecified)
inactive: dose: 100.0 mg/kg/injection, schedule: Q01DX001 (ip), vehicle: saline 112 % of control | dose: 200.0 mg/kg/injection, schedule: Q01DX001 (ip), vehicle: saline 100 % of control | dose: 400.0 mg/kg/injection, schedule: Q01DX001 (ip), vehicle: saline 102 % of control

Cc1cc(O)c(C)c(C)c1N=Nc1ccccc1
inactive: dose: 100.0 mg/kg/injection, schedule: Q01DX005 (ip), vehicle: saline with Tween-80 97 % of control | dose: 200.0 mg/kg/injection, schedule: Q01DX005 (ip), vehicle: saline with Tween-80 97 % of control | dose: 400.0 mg/kg/injection, schedule: Q01DX005 (ip), vehicle: saline with Tween-80 97 % of control

CC1CC(C)(C)N=C(CCNCc2ccccc2)O1 (stereo unspecified)
inactive: dose: 6.25 mg/kg/injection, schedule: Q01DX001 (ip), vehicle: saline 95 % of control | dose: 12.5 mg/kg/injection, schedule: Q01DX001 (ip), vehicle: saline 110 % of control | dose: 25.0 mg/kg/injection, schedule: Q01DX001 (ip), vehicle: saline 103 % of control

CCOC(=O)c1ccc(NC(=O)Nc2cccc(NC(C)=O)c2)cc1
inactive: dose: 50.0 mg/kg/injection, schedule: Q01DX001 (ip), vehicle: saline with Tween-80 96 % of control | [1] 87 % of control and 91 % of control | dose: 50.0 mg/kg/injection, schedule: Q04DX003 (ip), vehicle: saline with Tween-80 90 % of control | [11] 92 % of control | [2] 87 % of control and 91 % of control | [12] 87 % of control and 90 % of control | [8] 86 % of control | [13] 96 % of control | [3] 91 % of control | [14] 91 % of control | [9] 100 % of control | [15] 92 % of control

O=C(CC(O)(C(F)(F)F)C(F)(F)F)C(=O)c1ccc([N+](=O)[O-])cc1
inactive: [2] 105 % of control | [3] 94 % of control

CCOP(=O)(OCC)C1=C(P(=O)(OCC)OCC)C(F)(F)C(F)(F)C1(F)F
inactive: dose: 75.0 mg/kg/injection, schedule: Q01DX001 (ip), vehicle: other 107 % of control

O=C(O)C1C=CC(C(=O)O)c2ccccc21 (stereo unspecified)
inactive: dose: 100.0 mg/kg/injection, schedule: Q01DX001 (ip), vehicle: Klucel (hydroxypropylcellulose) (HPC) 91 % of control | dose: 200.0 mg/kg/injection, schedule: Q01DX001 (ip), vehicle: Klucel (hydroxypropylcellulose) (HPC) 90 % of control | dose: 400.0 mg/kg/injection, schedule: Q01DX001 (ip), vehicle: Klucel (hydroxypropylcellulose) (HPC) 91 % of control

S=C=Nc1ccc(Cl)c2ccccc12
inactive: dose: 12.5 mg/kg/injection, schedule: Q04DX002 (ip), vehicle: saline with Tween-80 90 % of control | dose: 25.0 mg/kg/injection, schedule: Q04DX002 (ip), vehicle: saline with Tween-80 98 % of control | dose: 50.0 mg/kg/injection, schedule: Q04DX002 (ip), vehicle: saline with Tween-80 102 % of control

O=C(CCl)C(c1ccc([N+](=O)[O-])cc1)c1ccc([N+](=O)[O-])cc1
inactive: [2] 98 % of control | [8] 100 % of control | [3] 98 % of control | [9] 103 % of control | [4] 98 % of control | [10] 108 % of control

CC(CCOc1ccc(Cl)cc1Cl)C(=O)O (stereo unspecified)
inactive: [12] 104 % of control | [14] 86 % of control

c1ccc(Cc2ccccc2-c2ccccc2)cc1
inactive: dose: 100.0 mg/kg/injection, schedule: Q04DX003 (ip), vehicle: Klucel (hydroxypropylcellulose) (HPC) 89 % of control | dose: 200.0 mg/kg/injection, schedule: Q04DX003 (ip), vehicle: Klucel (hydroxypropylcellulose) (HPC) 89 % of control | dose: 400.0 mg/kg/injection, schedule: Q04DX003 (ip), vehicle: Klucel (hydroxypropylcellulose) (HPC) 93 % of control

CC1=NCC[N-]C(C)(C)CC(C)=NCC[N-]C(C)(C)C1.[Ni+2].[O-][Cl+3]([O-])([O-])O
inactive: [7] 96 % of control | dose: 200.0 mg/kg/injection, schedule: Q04DX003 (ip), vehicle: saline 97 % of control

C=CCNS(=O)(=O)c1ccc(C)cc1
inactive: [2] 93 % of control | [8] 98 % of control | [3] 100 % of control | [9] 98 % of control | [4] 90 % of control | [10] 94 % of control

CCCCCCCCCCC[n+]1ccc(C#N)cc1
inactive: dose: 9.38 mg/kg/injection, schedule: Q01DX001 (ip), vehicle: saline 105 % of control | dose: 18.75 mg/kg/injection, schedule: Q01DX001 (ip), vehicle: saline 98 % of control

CCOC(=O)CCC(NC(=O)c1ccccc1NC)C(=O)OCC (stereo unspecified)
inactive: [8] 101 % of control | [9] 101 % of control | [10] 103 % of control

CN(C)c1ccc(CN2CCCN(Cc3ccc(N(C)C)cc3)C2c2cc(Cl)ccc2O)cc1
inactive: [2] 86 % of control | [8] 98 % of control | [3] 93 % of control | [9] 92 % of control | [4] 86 % of control | [10] 92 % of control

OC1(C#CCC2(O)CCCCC2)CCCCC1
inactive: [11] 91 % of control | [13] 91 % of control | [15] 93 % of control

CCCCCCCC(=O)N1CCCN(C(=O)CCCCCCC)C1
inactive: [5] 94 % of control | [6] 95 % of control | [7] 97 % of control

Cn1c(=O)c2c(nc(NCCCO)n2C)n(C)c1=O
inactive: dose: 12.5 mg/kg/injection, schedule: Q01DX005 (ip), vehicle: distilled water + Tween-80 100 % of control | dose: 25.0 mg/kg/injection, schedule: Q01DX005 (ip), vehicle: distilled water + Tween-80 94 % of control | dose: 50.0 mg/kg/injection, schedule: Q01DX005 (ip), vehicle: distilled water + Tween-80 94 % of control | dose: 100.0 mg/kg/injection, schedule: Q01DX005 (ip), vehicle: distilled water + Tween-80 94 % of control | dose: 200.0 mg/kg/injection, schedule: Q01DX005 (ip), vehicle: distilled water + Tween-80 98 % of control
